This is an account of results in patent publication EP4775582A1, “MACROCYCLIC COMPOUND AND ANTIBODY-DRUG CONJUGATE THEREOF” (Genfleet Therapeutics (Shanghai) Inc., priority 2023, dated 2025).

The test system of one data set is H441 p-ERK. As to the kind of experiment: Cell p-ERK assay (HTRF), NCI-H441 cells. Type of data set: cell-based, human. Conditions: Homo sapiens; NCI-H441 cells (KRAS G12V), 3 h incubation. The procedure, abridged: (§1)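 Phospho-ERK (T202/Y204) was measured by HTRF in lysates after 3 h compound treatment at 37 °C. Cells had been plated the previous day at 20000 per well for NCI-H441 and 10000 per well for AsPC-1. Four-parameter dose-response fitting of % inhibition gave IC50 values.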
On the technique in general: Time-resolved FRET reads energy transfer from a long-lived donor to a nearby acceptor.

The test system of another data set is AsPC-1 p-ERK. As to the kind of experiment: Cell p-ERK assay (HTRF), AsPC-1 cells. Type of data set: cell-based, human. Conditions: Homo sapiens. A digest of the protocol:
as §1

The test system of the next data set is NCI-H441 cells. As to the kind of experiment: 3D cell proliferation assay (CellTiter Glo-3D), NCI-H441. Conditions: Homo sapiens, 120 h, NCI-H441 cells (KRAS G12V), 2% FBS, 5 days, read-out: H441 AP IC50. The class given is cell-based, human. The procedure, abridged: (§2)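 IC50 values come from four-parameter fits of inhibition rate against log compound concentration, using CellTiter-Glo luminescence read after 5 days' exposure. AsPC-1 and NCI-H441 were plated at 800 cells per well in low-serum (2% FBS) medium. Compound was dosed the day after seeding, with incubation at 37 °C, 5% CO2.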
For orientation: Cellular ATP, detected with luciferase, serves as a proxy for viable cell number.

Another data set deals with AsPC-1 cells. The experiment in a line: 3D cell proliferation assay (CellTiter Glo-3D), AsPC-1. Type of data set: cell-based, human. Conditions: Homo sapiens, ASPC1, 120 h. A digest of the protocol: as §2
A short description of data set [1]: Solubility experiment (HPLC, external standard). Conditions: 37 °C, 24 h; for Solubility at pH 7.4 (µg/mL): pH 7.4 medium, 1440 min; for solubility at 24 h: ph 7.4 medium, pH 7.4, pH 7.4 medium. The class given is physicochemical. The method, then:
This experiment was intended to determine the solubility of the compounds in media at different pH values. The materials used in the experiment included: a pH 1.2 medium, a pH 4.5 medium, a pH 7.4 medium, and a diluent (acetonitrile/water = 50/50). 1. The preparation methods for media are as follows:
One centrifuge tube (containing about 2 mg of the test sample) was taken, 1 mL of DMSO was added to completely dissolve the test sample, and the mixture was marked as stock-1. 0.2 mL of stock-1 was transferred into a 10 mL volumetric flask, and then the 50:50 (acetonitrile/water) solution was added to bring the volume to the mark, so as to give a control solution.
Additionally, centrifuge tubes each containing about 1 mg of the test sample were taken, 1 mL of the corresponding medium solution was then added, and the tubes were shaken on a 37 °C water bath shaker for 24 h. After centrifugation for 3 times (centrifugation time: 10 min, rotation speed: 12000 rpm), 0.2 mL of the supernatants were taken, 0.8 mL of the diluent (acetonitrile/water = 50/50) was added to each tube, and the mixtures were vortexed and mixed well to give solubility samples.
The solubility samples described above and the control solution were sequentially analyzed by high performance liquid chromatography. The chromatographic conditions are as follows:
The actual concentration of the compound in each solubility sample was calculated according to an external standard method. Concentration (μg/mL) = (ASample × CControl × DSample)/(AControl)∗1000; [formula] Asample: the peak area of the target peak in the sample solution; Ccontrol: the concentration (mg/mL) of the control solution; Dsample: the dilution factor of the sample solution; Acontrol: the peak area of the target peak in the control solution.

Setting [2] is: ASPC1, 3 h, read-out: AsPC-1 p-ERK IC50(nM).
Setting [3] is: ASPC1, AsPC-1 cells (KRAS G12D), 3 h incubation, read-out: AsPC-1 p-ERK IC50.
[4] abbreviates: AsPC-1 cells (KRAS G12D), 3D, 2% FBS, 5 days, read-out: AsPC-1 AP IC50.

Converted amounts (≈) assume the structure as drawn. Where two headings read alike, the source gives them in different places.

On to `COCCn1c(-c2cc(C#CCN3CCN(C(=O)CO)CC3)cnc2[C@H](C)OC)c2c3cc(ccc31)-c1csc(n1)C[C@H](NC(=O)[C@H]1[C@H](C)[C@@H]1C)C(=O)N1CCC[C@H](N1)C(=O)OCC(C)(C)C2` (atropisomer, axis not shown; (Ra)) [Compound Z63-1, (2R,3S)-N-((6^3S,4S,Z)-1^2-(5-(3-(4-(2-hydroxyacetyl)piperazin-1-yl)prop-1-yn-1-yl)-(Ra)-2-((S)-1-methoxyethyl)pyridin-3-yl)-1'-(2-methoxyethyl)-10,10-dimethyl-5,7-dioxo-6^1,6^2,6^3,6^4,6^5,6^6-hexahydro-1^1H-8-oxa-2(4,2)-thiazola-1(5,3)-indola-6(1,3)-pyridazinacycloundecaphane-4-yl)-2,3-dimethylcyclopropane-1-carboxamide], for which the IC50 was determined as 0.55 nM in the data set with H441 p-ERK, 0.61 nM with AsPC-1 p-ERK (setting [2]), 0.32 nM with NCI-H441 cells and 0.36 nM in the data set on AsPC-1 cells (read-out: AsPC-1 AP IC50(nM)). Moreover, in data set [1], the “Solubility at pH 7.4 (µg/mL)” value was 7.53 µg/mL.
In the case of `CCn1c(-c2cc(C#CCN3CCC(C(=O)NCCO)CC3)cnc2[C@H](C)OC)c2c3cc(ccc31)-c1csc(n1)C[C@H](NC(=O)[C@H]1[C@@H]3COC[C@@H]31)C(=O)N1CCC[C@H](N1)C(=O)OCC(C)(C)C2` (atropisomer, axis not shown; (Ra)) [Compound Z21, 1-(3-(5-((6^3S,4S,Z)-4-((1R,5S,6r)-3-oxabicyclo[3.1.0]hexane-6-carboxamido)-1^1-ethyl-10,10-dimethyl-5,7-dioxo-6^1,6^2,6^3,6^4,6^5,6^6-hexahydro-1^1H-8-oxa-2(4,2)-thiazola-1(5,3)-indola-6(1,3)-pyridazinacycloundecaphane-1^2-yl)-6-(Ra)-((S)-1-methoxyethyl)pyridin-3-yl)prop-2-yn-1-yl)-N-(2-hydroxyethyl)piperidine-4-carboxamide], the IC50 was 0.51 nM in the data set with H441 p-ERK, 1.68 nM in the data set on AsPC-1 p-ERK (setting [3]), 0.41 nM in the data set with NCI-H441 cells and 1.11 nM with AsPC-1 cells (setting [4]). Also, the solubility at 24 h in data set [1] is 9.71 µg/mL (≈ 10.2 µM).
Taken in the same sequence, the figures for `CCn1c(-c2cc(OCCN3CCC(C#N)(CN)CC3)c[n+]([O-])c2[C@H](C)OC)c2c3cc(ccc31)-c1csc(n1)C[C@H](NC(=O)[C@H]1[C@H](C)[C@@H]1C)C(=O)N1CCC[C@H](N1)C(=O)OCC(C)(C)C2` (atropisomer, axis not shown; (Ra)) [Compound Z73, 5-(2-(4-(aminomethyl)-4-cyanopiperidin-1-yl)ethoxy)-(Ra)-3-((6^3S,4S,Z)-4-((1r,2R,3S)-2,3-dimethylcyclopropane-1-carboxamido)-1^1-ethyl-10,10-dimethyl-5,7-dioxo-6^1,6^2,6^3,6^4,6^5,6^6-hexahydro-1^1H-8-oxa-2(4,2)-thiazola-1(5,3)-indola-6(1,3)-pyridazinacycloundecaphane-1^2-yl)-2-((S)-1-methoxyethyl)pyridine 1-oxide] were 3.84 nM, 3.19 nM, 2.48 nM, 2.5 nM and 96.6 µg/mL (≈ 104 µM).
Regarding `CCn1c(-c2cc(C#CCN3CCS(=O)(=O)CC3)cnc2[C@H](C)OC)c2c3cc(ccc31)-c1csc(n1)C[C@H](NC(=O)[C@@H](N)C1CCC1)C(=O)N1CCC[C@H](N1)C(=O)OCC(C)(C)C2` (atropisomer, axis not shown; (Ra)) [Compound Z16, (2S)-2-amino-2-cyclobutyl-N-((6^3S,4S,Z)-(Ra)-1^2-(5-(3-(1,1-dioxidothiomorpholino)prop-1-yn-1-yl)-2-((S)-1-methoxyethyl)pyridin-3-yl)-1^1-ethyl-10,10-dimethyl-5,7-dioxo-6^1,6^2,6^3,6^4,6^5,6^6-hexahydro-1^1H-8-oxa-2(4,2)-thiazola-1(5,3)-indola-6(1,3)-pyridazinacycloundecaphane-4-yl)acetamide], the IC50 was 1.14 nM in the data set with H441 p-ERK and 1.67 nM with AsPC-1 p-ERK (setting [2]). Further, the solubility at 24 h in data set [1] worked out at 15 µg/mL (≈ 16.4 µM).
In the case of `CCn1c(-c2cc(C#CCN3CCS(=N)(=O)CC3)cnc2[C@H](C)OC)c2c3cc(ccc31)-c1csc(n1)C[C@H](NC(=O)[C@H]1[C@@H]3COC[C@@H]31)C(=O)N1CCC[C@H](N1)C(=O)OCC(C)(C)C2` (atropisomer, axis not shown; (Ra)) [Compound Z27], the IC50 in the data set with H441 p-ERK worked out at 0.64 nM; in the data set on AsPC-1 p-ERK (setting [2]), 0.51 nM; with NCI-H441 cells, 0.44 nM; in the data set with AsPC-1 cells (read-out: AsPC-1 AP IC50(nM)), 0.78 nM. The compound also gave a solubility at 24 h in data set [1] of 20.8 µg/mL (≈ 22.8 µM).
On the same counts, the results for `CO[C@@H](C)c1ncc(C#CCN2CCS(=O)(=O)CC2)cc1-c1c2c3cc(ccc3n1CCCO)-c1csc(n1)C[C@H](NC(=O)[C@H]1[C@@H]3COC[C@@H]31)C(=O)N1CCC[C@H](N1)C(=O)OCC(C)(C)C2` (atropisomer, axis not shown; (Ra)) [Compound Z24-1, (1R,5S,6r)-N-((6^3S,4S,Z)-1^2-(5-(3-(1,1-dioxidothiomorpholino)prop-1-yn-1-yl)-(Ra)-2-((S)-1-methoxyethyl)-pyridin-3-yl)-1^1-(3-hydroxypropyl)-10,10-dimethyl-5,7-dioxo-6^1,6^2,6^3,6^4,6^5,6^6-hexahydro-1^1H-8-oxa-2(4,2)-thiazola-1(5,3)-indola-6(1,3)-pyridazinacycloundecaphane-4-yl)-3-oxabicyclo[3.1.0]hexane-6-carboxamide] are 3.76 nM, 2.64 nM, 1.77 nM, 1.73 nM and 12.3 µg/mL (≈ 13.1 µM).
Consider `CCn1c(-c2cc(C#CCN3CCC(C#N)(CO)CC3)c[n+]([O-])c2[C@H](C)OC)c2c3cc(ccc31)-c1csc(n1)C[C@H](NC(=O)[C@H]1[C@H](C)[C@@H]1C)C(=O)N1CCC[C@H](N1)C(=O)OCC(C)(C)C2` (atropisomer, axis not shown; (Ra)) [Compound Z45-1, 5-(3-(4-cyano-4-(hydroxymethyl)piperidin-1-yl)prop-1-yn-1-yl)-(Ra)-3-((6^3S,4S,Z)-4-((1r,2R,3S)-2,3-dimethylcyclopropane-1-carboxamido)-1^1-ethyl-10,10-dimethyl-5,7-dioxo-6^1,6^2,6^3,6^4,6^5,6^6-hexahydro-1^1H-8-oxa-2(4,2)-thiazola-1(5,3)-indola-6(1,3)-pyridazinacycloundecaphane-1^2-yl)-2-((S)-1-methoxyethyl)pyridine 1-oxide], for which the IC50 in the data set with H441 p-ERK is 0.6 nM; with AsPC-1 p-ERK (setting [3]), 0.28 nM; in the data set on NCI-H441 cells, 0.53 nM; with AsPC-1 cells (setting [4]), 0.12 nM. In data set [1], this compound yielded a solubility at 24 h of 5.01 µg/mL (≈ 5.45 µM).
In the case of `COCCn1c(-c2cc(C#CCN3CCN(C(=O)CO)CC3)cnc2[C@H](C)OC)c2c3cc(ccc31)-c1csc(n1)C[C@H](NC(=O)[C@H]1[C@H](C)[C@@H]1C)C(=O)N1CCC[C@H](N1)C(=O)OCC(C)(C)C2` (atropisomer, axis not shown; (Sa)) [Compound Z63-2, (2R,3S)-N-((6^3S,4S,Z)-1^2-(5-(3-(4-(2-hydroxyacetyl)piperazin-1-yl)prop-1-yn-1-yl)-(Sa)-2-((S)-1-methoxyethyl)pyridin-3-yl)-1^1-(2-methoxyethyl)-10,10-dimethyl-5,7-dioxo-6^1,6^2,6^3,6^4,6^5,6^6-hexahydro-1^1H-8-oxa-2(4,2)-thiazola-1(5,3)-indola-6(1,3)-pyridazinacycloundecaphane-4-yl)-2,3-dimethylcyclopropane-1-carboxamide], in data set [1], the “Solubility at pH 7.4 (µg/mL)” value amounted to 15.37 µg/mL.

The term IC50 denotes the midpoint of a concentration-inhibition curve. One may read the Solubility as the concentration that dissolves in the medium under given conditions. Low readings indicate a poorly soluble substance, high ones a readily soluble substance. Usually solubility stands for the concentration that dissolves in the medium under given conditions.
